Key:
THZ531 = compound: CN(C)C/C=C/C(=O)Nc1ccc(C(=O)N2CCC[C@@H](Nc3ncc(Cl)c(-c4c[nH]c5ccccc45)n3)C2)cc1 [THZ531]; test: increase in dead-cell fraction, 72 h; higher = more death;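 further: breast cancer cell lines in 384-well plates, stained with Hoechst plus LIVE/DEAD far red dye and imaged, cells above an LDR intensity threshold counted dead, Hoechst-negative corpses included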
Neratinib/HKI272 = compound: CCOc1cc2ncc(C#N)c(Nc3ccc(OCc4ccccn4)c(Cl)c3)c2cc1NC(=O)/C=C/CN(C)C [Neratinib/HKI272]; test: as above
[1] = compound: CCc1cnn2c(NCc3ccc[n+]([O-])c3)cc(N3CCCC[C@H]3CCO)nc12; test: as above
THZ1 = compound: CN(C)C/C=C/C(=O)Nc1ccc(C(=O)Nc2cccc(Nc3ncc(Cl)c(-c4c[nH]c5ccccc45)n3)c2)cc1 [THZ1]; test: as above
LEE011/Ribociclib = compound: CN(C)C(=O)c1cc2cnc(Nc3ccc(N4CCNCC4)cn3)nc2n1C1CCCC1 [LEE011/Ribociclib]; test: as above
BSJ-03-123 = compound: CC(=O)c1c(C)c2cnc(Nc3ccc(N4CCN(CCOCCOCCOCCNC(=O)COc5cccc6c5C(=O)N(C5CCC(=O)NC5=O)C6=O)CC4)cn3)nc2n(C2CCCC2)c1=O [BSJ-03-123]; test: as above
Flavopiridol = compound: CN1CC[C@H](c2c(O)cc(O)c3c(=O)cc(-c4ccccc4Cl)oc23)[C@H](O)C1 [Flavopiridol]; test: as above
[2] = compound: CC(=O)c1c(C)c2cnc(Nc3ccc(N4CCNCC4)cn3)nc2n(C2CCCC2)c1=O; test: as above
YKL-5-124 = compound: C=CC(=O)Nc1ccc(C(=O)Nc2[nH]nc3c2CN(C(=O)N[C@H](CN(C)C)c2ccccc2)C3(C)C)cc1 [YKL-5-124]; test: as above
[3] = compound: CCN1CCN(Cc2ccc(Nc3ncc(F)c(-c4cc(F)c5nc(C)n(C(C)C)c5c4)n3)nc2)CC1; test: as above
Ceritinib/LDK378 = compound: Cc1cc(Nc2ncc(Cl)c(Nc3ccccc3S(=O)(=O)C(C)C)n2)c(OC(C)C)cc1C1CCNCC1 [Ceritinib/LDK378]
Saracatinib/AZD0530 = compound: CN1CCN(CCOc2cc(OC3CCOCC3)c3c(Nc4c(Cl)ccc5c4OCO5)ncnc3c2)CC1 [Saracatinib/AZD0530]
Luminespib/NVP-AUY922 = compound: CCNC(=O)c1noc(-c2cc(C(C)C)c(O)cc2O)c1-c1ccc(CN2CCOCC2)cc1 [Luminespib/NVP-AUY922]
BSJ-01-175 = compound: CN(C)C/C=C/C(=O)Nc1ccc(O[C@@H]2CCC[C@@H](Nc3ncc(Cl)c(-c4c[nH]c5ccccc45)n3)C2)cc1 [BSJ-01-175]
[4] = compound: CCCCOc1c(C(=O)c2c(F)cc(C)cc2F)c[nH]c2nncc1-2
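Wherever GR50, 72 h is given: breast cancer and non-malignant breast epithelial cell lines, Deep Dye Drop or Dye Drop imaging, nine half-log doses, GR normalized to time-zero plates and DMSO-only controls.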

CAL851 was tested, and the “increase in dead-cell fraction” value (THZ531; 0.0001 µM) was 0.0002, the “increase in dead-cell fraction” value (THZ531; 0.0003162 µM) was 0.0044 and the “increase in dead-cell fraction” value (THZ531; 0.001 µM) was -0.0008. The “increase in dead-cell fraction” value (THZ531; 0.003162 µM) was 0.0011, the “increase in dead-cell fraction” value (THZ531; 0.01 µM) was 0.0061 and the “increase in dead-cell fraction” value (THZ531; 0.03162 µM) was 0.0125. The “increase in dead-cell fraction” value (THZ531; 0.1 µM) was 0.0297, the “increase in dead-cell fraction” value (THZ531; 0.3162 µM) was 0.048 and the “increase in dead-cell fraction” value (THZ531; 1 µM) was 0.0747. The “increase in dead-cell fraction” value (Neratinib/HKI272; 0.0003162 µM) was -0.0016, the “increase in dead-cell fraction” value (Neratinib/HKI272; 0.001 µM) was 0.0027 and the “increase in dead-cell fraction” value (Neratinib/HKI272; 0.003162 µM) was 0.006. The “increase in dead-cell fraction” value (Neratinib/HKI272; 0.01 µM) was 0.0409, the “increase in dead-cell fraction” value (Neratinib/HKI272; 0.03162 µM) was 0.113 and the “increase in dead-cell fraction” value (Neratinib/HKI272; 0.1 µM) was 0.199. The “increase in dead-cell fraction” value (Neratinib/HKI272; 0.3162 µM) was 0.29, the “increase in dead-cell fraction” value (Neratinib/HKI272; 1 µM) was 0.344 and the “increase in dead-cell fraction” value (Neratinib/HKI272; 3.162 µM) was 0.542. The “increase in dead-cell fraction” value ([1]; 0.0001 µM) was -0.007, the “increase in dead-cell fraction” value ([1]; 0.0003162 µM) was -0.005 and the “increase in dead-cell fraction” value ([1]; 0.001 µM) was 0.003. For the same cell line, the “increase in dead-cell fraction” value ([1]; 0.003162 µM) was 0.0409, the “increase in dead-cell fraction” value ([1]; 0.01 µM) was 0.2 and the “increase in dead-cell fraction” value ([1]; 0.03162 µM) was 0.147. For the same cell line, the “increase in dead-cell fraction” value ([1]; 0.1 µM) was 0.205, the “increase in dead-cell fraction” value ([1]; 0.3162 µM) was 0.22 and the “increase in dead-cell fraction” value ([1]; 1 µM) was 0.217. The “increase in dead-cell fraction” value (THZ1; 0.0001 µM) was -0.0023, the “increase in dead-cell fraction” value (THZ1; 0.0003162 µM) was -0.0015 and the “increase in dead-cell fraction” value (THZ1; 0.001 µM) was 0.0049. The “increase in dead-cell fraction” value (THZ1; 0.003162 µM) was 0.0027, the “increase in dead-cell fraction” value (THZ1; 0.01 µM) was 0.0075 and the “increase in dead-cell fraction” value (THZ1; 0.03162 µM) was 0.0208. For the same cell line, the “increase in dead-cell fraction” value (THZ1; 0.1 µM) was 0.053, the “increase in dead-cell fraction” value (THZ1; 0.3162 µM) was 0.123 and the “increase in dead-cell fraction” value (THZ1; 1 µM) was 0.402. For the same cell line, the “increase in dead-cell fraction” value (LEE011/Ribociclib; 0.001 µM) was -0.003, the “increase in dead-cell fraction” value (LEE011/Ribociclib; 0.003162 µM) was 0.001 and the “increase in dead-cell fraction” value (LEE011/Ribociclib; 0.01 µM) was 0.0024. The “increase in dead-cell fraction” value (LEE011/Ribociclib; 0.03162 µM) was 0, the “increase in dead-cell fraction” value (LEE011/Ribociclib; 0.1 µM) was -0.0008 and the “increase in dead-cell fraction” value (LEE011/Ribociclib; 0.3162 µM) was -0.0059. For the same cell line, the “increase in dead-cell fraction” value (LEE011/Ribociclib; 1 µM) was 0.0038, the “increase in dead-cell fraction” value (LEE011/Ribociclib; 3.162 µM) was 0.0003 and the “increase in dead-cell fraction” value (LEE011/Ribociclib; 10 µM) was -0.0071. The “increase in dead-cell fraction” value (BSJ-03-123; 0.001 µM) was -0.0043, the “increase in dead-cell fraction” value (BSJ-03-123; 0.003162 µM) was -0.0029 and the “increase in dead-cell fraction” value (BSJ-03-123; 0.01 µM) was -0.0014. The “increase in dead-cell fraction” value (BSJ-03-123; 0.03162 µM) was 0.0058, the “increase in dead-cell fraction” value (BSJ-03-123; 0.1 µM) was 0.007 and the “increase in dead-cell fraction” value (BSJ-03-123; 0.3162 µM) was 0.0046. For the same cell line, the “increase in dead-cell fraction” value (BSJ-03-123; 1 µM) was 0.0134, the “increase in dead-cell fraction” value (BSJ-03-123; 3.162 µM) was 0.0379 and the “increase in dead-cell fraction” value (BSJ-03-123; 10 µM) was 0.0921. The “increase in dead-cell fraction” value (Flavopiridol; 0.0001 µM) was -0.0044, the “increase in dead-cell fraction” value (Flavopiridol; 0.0003162 µM) was 0.0036 and the “increase in dead-cell fraction” value (Flavopiridol; 0.001 µM) was 0.0039. For the same cell line, the “increase in dead-cell fraction” value (Flavopiridol; 0.003162 µM) was -0.0035, the “increase in dead-cell fraction” value (Flavopiridol; 0.01 µM) was 0.0021 and the “increase in dead-cell fraction” value (Flavopiridol; 0.03162 µM) was 0.001. For the same cell line, the “increase in dead-cell fraction” value (Flavopiridol; 0.1 µM) was 0.0068, the “increase in dead-cell fraction” value (Flavopiridol; 0.3162 µM) was 0.0514 and the “increase in dead-cell fraction” value (Flavopiridol; 1 µM) was 0.103. The “increase in dead-cell fraction” value ([2]; 0.0003162 µM) was 0.0002, the “increase in dead-cell fraction” value ([2]; 0.001 µM) was 0.0074 and the “increase in dead-cell fraction” value ([2]; 0.003162 µM) was -0.0015. The “increase in dead-cell fraction” value ([2]; 0.01 µM) was -0.0049, the “increase in dead-cell fraction” value ([2]; 0.03162 µM) was -0.0041 and the “increase in dead-cell fraction” value ([2]; 0.1 µM) was 0.0052. The “increase in dead-cell fraction” value ([2]; 0.3162 µM) was -0.004, the “increase in dead-cell fraction” value ([2]; 1 µM) was -0.0071 and the “increase in dead-cell fraction” value ([2]; 3.162 µM) was -0.006. The “increase in dead-cell fraction” value (YKL-5-124; 0.001 µM) was 0.0613, the “increase in dead-cell fraction” value (YKL-5-124; 0.003162 µM) was 0.0965 and the “increase in dead-cell fraction” value (YKL-5-124; 0.01 µM) was 0.0961. For the same cell line, the “increase in dead-cell fraction” value (YKL-5-124; 0.03162 µM) was 0.1, the “increase in dead-cell fraction” value (YKL-5-124; 0.1 µM) was 0.12 and the “increase in dead-cell fraction” value (YKL-5-124; 0.3162 µM) was 0.15. The “increase in dead-cell fraction” value (YKL-5-124; 1 µM) was 0.096, the “increase in dead-cell fraction” value (YKL-5-124; 3.162 µM) was 0.12 and the “increase in dead-cell fraction” value (YKL-5-124; 10 µM) was 0.402. For the same cell line, the “increase in dead-cell fraction” value ([3]; 0.001 µM) was -0.0049, the “increase in dead-cell fraction” value ([3]; 0.003162 µM) was -0.0095 and the “increase in dead-cell fraction” value ([3]; 0.01 µM) was -0.0073. The “increase in dead-cell fraction” value ([3]; 0.03162 µM) was -0.0136, the “increase in dead-cell fraction” value ([3]; 0.1 µM) was -0.0173 and the “increase in dead-cell fraction” value ([3]; 0.3162 µM) was -0.0161. The “increase in dead-cell fraction” value ([3]; 1 µM) was 0.0209, the “increase in dead-cell fraction” value ([3]; 3.162 µM) was 0.211 and the “increase in dead-cell fraction” value ([3]; 10 µM) was 0.266. For the same cell line, the “GR50, 72 h” value (Ceritinib/LDK378) was 0.74 µM, the “GR50, 72 h” value (Saracatinib/AZD0530) was 0.871 µM and the “GR50, 72 h” value (Luminespib/NVP-AUY922) was 0.00652 µM. The “GR50, 72 h” value (BSJ-01-175) was 0.0129 µM and the “GR50, 72 h” value [4] was 0.00814 µM.

From the supplement of paper PMC9663587
